These substances were tested on Jurkat cells (assay: SynFinger library screen: CD69 expression of CRASH-IT (Zap70-PD1-degron) transduced Jurkat cells with or without lenalidomide, enrichment index from NGS reads). Settings: Table 6; dual substitutions in first hybrid zinc finger domain; Jurkat, 50 nM lenalidomide vs mock, CD69-HI/CD69-LO; low EI = desired.
Type: cell-based
Design: key to EI / EI index (enrichment index): enrichment index; low EI = SynFinger with desired properties
Text: […] Jurkat cells were transduced with the SynFinger library (SynFinger containing CRASH-IT switches) at a 12.8% transduction efficiency and sorted for high EGFP expression to enrich transduced cells. For quality control of the SynFinger transduced Jurkat cells, SynFinger sequences were amplified and analyzed by NGS. 10 randomly selected SynFinger encoding DNA sequences or DNA sequences encoding the same SynFinger amino acid sequences but contain 2 nucleotide mismatches due to alternative codon usage were used to assess ability to distinguish true SynFinger sequences from noise in the NGS data. 10/10 SynFinger encoding full-nucleotide sequence match sequences were observed within NGS data whereas the 2 nucleotide mismatch containing sequences were not detected.
Jurkat cells expressing the SynFinger library were treated with 50 nM lenalidomide (a suboptimal dose that activates only ˜50% of cells expressing a CRASH-IT switch containing the parental double hybrid degron in Jurkat cells, as compared to a maximally effective 1000 nM lenalidomide dose) or were mock treated for 24 hours, and subsequently activated with anti-CD3/anti-CD28 antibodies in the presence or absence of 50 nM lenalidomide for 5 hours. Afterwards, cells were stained with IR dye (1:400) and anti-CD69-PE (1:200). Cells were sorted for live (IR dye negative), EGFP high end CD69 high (top 5%) or CD69 low (bottom 5%) expression using Aria Fusion cytometers.
Subsequently, cells were washed with PBS, and cell pellets were frozen at −20° C. until DNA extraction. Genomic DNA was isolated using the DNeasy Blood & Tissue Kit (Qiagen) according to the manufacturer's instructions, using 5×10^6 cells per column. DNA was eluted in 22 μl RNAse free water. Deep sequencing adapters and indexes were added to SynFinger encoding DNA sequences using PCR amplification. Briefly, 3 μg genomic DNA (20 μl), indexed forward and reverse primers (10 μM, 2.5 μl each) and 25 μl NEBNext® High-Fidelity 2×PCR Master Mix were added to the PCR reaction. An optimized PCR reaction (98° C. for 30 s, (98° C. for 10 s, 56° C. for 10 s, 72° C. for 5 s)×25 cycles, 72° C. for 3 min was performed using Eppendorf PCR cyclers.
Indexed PCR products were run on agarose gel, relative DNA concentrations were estimated by measuring band intensity, and 12 indexed PCR reaction products were mixed per MiSeq chip. To increase sequence diversity, samples were mixed with 25% PhiX DNA. In total, 2 MiSeq chips were used (100 bp, single read). To distinguish genuine SynFinger sequences from sequencing errors, results were filtered using a reference list of actual sequences used in SynFinger library design (100% codon match). Sequences with a very low number of reads (sum of all samples below 500 reads) were excluded from analysis.
To identify SynFingers that improve sensitivity of CRASH-IT switches towards lenalidomide while preserving or improving stringency of switch mediated control of T cell activation in the absence of lenalidomide, an enrichment index (EI) value was calculated for each sequence as described below, and SynFingers were ranked according to their EI, with a low EI indicating a SynFinger with desired properties.
CD69-HI and […] read counts from top 100 SynFingers were compared with read counts from the parental double hybrid degron using a two-sided Fisher's exact test to determine enrichment of CD69-HI cells in the presence of lenalidomide and enrichment of CD69-LO cells in the absence of lenalidomide.
To further improve the sensitivity of double hybrid degron towards IMiDs, we performed a high throughput screen using a library of ˜50,200 CRASH-IT variants that encode either single or double amino acid substitutions at the indicated positions of the first hybrid zinc finger sequence, thereby changing 18 amino acids of this zinc finger into any amino acid except cysteine (FIG. 3). […]

Substance	EI index (enrichment index)
1 (LQCRICGFTCRLKGNLLRHIKLH) [compound 1]	0
2 (LQCEICGFTCRRTGNLLRHIKLH) [compound 2]	0.002912
3 (LQCEICGFTCRRKGNLMRHIKLH) [compound 3]	0.003725
4 (LQCEICGFTCRQKMRLLRHIKLH) [compound 4]	0.00411
5 (LQCEICGFTCRQVKNLLRHIKLH) [compound 5]	0.004648
6 (LQCEICGFTCRQKNNLLRHIALH) [compound 6]	0.004719
7 (LQCEICGFTCRQKNNLLRHIKRH) [compound 7]	0.004969
8 (LQCEICGFTCRQLGNLLWHIKLH) [compound 8]	0.006187
9 (LQCEICGFTCRRVGNLLRHIKLH) [compound 9]	0.006877
10 (LQCWICGFTCRQKGNLLRHIYLH) [compound 10]	0.00695
11 (LQCPICGFTCRQKSNLLRHIKLH) [compound 11]	0.008068
12 (IQCEACGFTCRQKGNLLRHIKLH) [compound 12]	0.008564
13 (LQCEICGFTCRQKGNMLRHIRLH) [compound 13]	0.008761
14 (LQCEICGFTCRQKGNLIRHILLH) [compound 14]	0.009984
15 (LQCLICGFTCRRKGNLLRHIKLH) [compound 15]	0.01014
16 (LQCEICGFTCRRKGNLYRHIKLH) [compound 16]	0.0107
17 (LQCIICGFTCRQKGNLLKHIKLH) [compound 17]	0.0108
18 (LQCAICGFTSRQKGNLLRHIKLH) [compound 18]	0.01133
19 (LQCEICGFTCRLKGNLLRHILLH) [compound 19]	0.01177
20 (LQCKICGFTCRVKGNLLRHIKLH) [compound 20]	0.01216
21 (LQCEICGFSCRQKGNLRRHIKLH) [compound 21]	0.01255
22 (LQCKICGFTSRQKGNLLRHIKLH) [compound 22]	0.01311
23 (LQCEICGFTCRKKGALLRHIKLH) [compound 23]	0.0133
24 (LQCEICGFTCRQKHNLLRHIKNH) [compound 24]	0.01351
25 (LQCKICGFTCRQMGNLLRHIKLH) [compound 25]	0.01383

Substance	EI index (enrichment index)
26 (FQCEICGFTCRQKVNLLRHIKLH) [compound 26]	0.01478
27 (LQCEICGFTCVQKGNLLRHIALH) [compound 27]	0.01487
28 (LQCEICGFTCRRKGNLLRHIKHH) [compound 28]	0.01589
29 (LQCEICGFTCRQVGWLLRHIKLH) [compound 29]	0.01609
30 (LQCMICGFTFRQKGNLLRHIKLH) [compound 30]	0.01673
31 (LQCEICGFTCRQKTRLLRHIKLH) [compound 31]	0.01686
32 (LQCEICGFTCRQEKNLLRHIKLH) [compound 32]	0.01693
33 (LQCDICGFTCRQKGNLLLHIKLH) [compound 33]	0.01705
34 (LQCEICGFTCRQKYNLLRHISLH) [compound 34]	0.01723
35 (LQCEICGFTARRKGNLLRHIKLH) [compound 35]	0.01754
36 (YQCVICGFTCRQKGNLLRHIKLH) [compound 36]	0.01769
37 (FQCEICGFTCRQKHNLLRHIKLH) [compound 37]	0.01787
38 (LQCEICGYTCRKKGNLLRHIKLH) [compound 38]	0.01794
39 (LQCEICGFTCRQKGRLLRHIKQH) [compound 39]	0.01901
40 (LQCEICGFTCKQKKNLLRHIKLH) [compound 40]	0.01915
41 (LQCEVCGFTCRKKGNLLRHIKLH) [compound 41]	0.01944
42 (LQCEICGFTCRRKGNLLRHRKLH) [compound 42]	0.01965
43 (FQCEICGFTCRQKGRLLRHIKLH) [compound 43]	0.01977
44 (LQCEICGFTCRQKANLKRHIKLH) [compound 44]	0.02064
45 (LQCIICGFTCRQKGNLWRHIKLH) [compound 45]	0.0209
46 (LQCEICGFTCRQKGNLYRHYKLH) [compound 46]	0.021
47 (LQCEICGFTCRQKGTLLRHIKRH) [compound 47]	0.02209
48 (LQCEICGFTCRKKGNLLRHKKLH) [compound 48]	0.02219
49 (LQCEICGFTCRRKGSLLRHIKLH) [compound 49]	0.02268
50 (LQCEICGFTCRNKKNLLRHIKLH) [compound 50]	0.02307

Substance	EI index (enrichment index)
51 (LQCEICGFTCRQKKNLLRHISLH) [compound 51]	0.02309
52 (FQCEICGFTCRQKRNLLRHIKLH) [compound 52]	0.0231
53 (LQCEICGFTCRQKGNLLRHYKTH) [compound 53]	0.02363
54 (LQCEICGFTCRQKGNLLVHIALH) [compound 54]	0.02408
55 (LQCEICGFTCRQKFKLLRHIKLH) [compound 55]	0.0247
56 (LQCKICGFTCRHKGNLLRHIKLH) [compound 56]	0.02543
57 (LQCEICGFTCRQKMNLVRHIKLH) [compound 57]	0.02583
58 (LQCRICGFTCRQKGNMLRHIKLH) [compound 58]	0.02584
59 (LQCEICGFTCRLKGNLLLHIKLH) [compound 59]	0.02682
60 (LQCEICGFTCRQWGNYLRHIKLH) [compound 60]	0.02739
61 (WQCEICGFTCRQYGNLLRHIKLH) [compound 61]	0.0276
62 (LQCEICGFTCRQPGNLLRHIKRH) [compound 62]	0.02767
63 (LQCWICGFTCRRKGNLLRHIKLH) [compound 63]	0.02829
64 (LQCEICGFTCRQKGNLHLHIKLH) [compound 64]	0.02947
65 (LQCEICGFTCRQKGNLLRHIFKH) [compound 65]	0.02989
66 (LQCVICGFTCRQKGNLVRHIKLH) [compound 66]	0.02989
67 (LQCEICGFTCRQQLNLLRHIKLH) [compound 67]	0.0303
68 (HQCEICGFTCRQKGRLLRHIKLH) [compound 68]	0.03141
69 (LQCEICGFTCRQKGNLDRHIKRH) [compound 69]	0.03188
70 (LQCWICGFTCRQKMNLLRHIKLH) [compound 70]	0.03192
71 (LQCEICGFTCRKKNNLLRHIKLH) [compound 71]	0.03227
72 (YQCEICGFTCRQKGNLLRHIILH) [compound 72]	0.03275
73 (LQCHICGFTSRQKGNLLRHIKLH) [compound 73]	0.03303
74 (WQCEICGFTCRQKGNLLRHIALH) [compound 74]	0.03362
75 (LQCHICGFTCRQHGNLLRHIKLH) [compound 75]	0.03442
